How the values were obtained:
Swiss 44 mice = assay: Convulsivant activity after intraperitoneal injection; type: in vivo
Protocol: Female and male Swiss 44 mice were used, weighing between 25 and 30 g, they came from Oswaldo Cruz Foundation's Center of Laboratory Animal Raising. The procedures involving the animals were examined and approved by Oswaldo Cruz Foundation's Committee of Animal Ethics (CEUA-FIOCRUZ, Act 00085-02). […] For each molecule, the necessary dose to induce a convulsive clinical Figure in 50% of the animals (DE50) was determined by linear regressive curves interpoled (GraphPad Prim, version 3.03).

eosinophils of rats = assay: Cytosolic calcium increase in eosinophils stimulated with PAF (Fura 2-AM); type: cell-based, Wistar rats; conditions: PAF (1 μM); for inhibition of citosolic calcium increase compared with lidocaine: 5 min pre-incubation
Protocol: Female and male Wistar rats were used, weighing between 200 and 250 g, they came from Oswaldo Cruz Foundation's Center of Laboratory Animal Raising. The procedures involving the animals were examined and approved by Oswaldo Cruz Foundation's Committee of Animal Ethics (CEUA-FIOCRUZ, Licenca no. 00085-02).
The animals were sacrificed in a chamber of CO2 and a population of cells containing 10-15% eosinophils were recovered from the peritoneal cavity after washing the same with 20 ml Hanks, as previously described. After centrifugation, the cellular sediment was resuspended and the leukocytes subtypes (mononuclear cells, eosinophils and mast cells) separated in a discontinuous gradient of Percoll (double layer) centrifugated at 400×g for 25 minutes. The eosinophils (85-95% purity) were recovered in the interface 56%-72%, washed in RPMi medium to eliminate residue of Percoll and related. The total cells isolated was obtained after the dilution of a sample in Türk liquid and couting in Neubauer chamber with the assistance of direct-light microscopy. The populational purity analysis was done by direct-light microscopy in cytocentrifugates dyed with May-Grunwald-Giemsa.
The eosinophils (1×10^7/ml) were loaded with 3 μM Fura 2-AM as described, washed in PBS enriched with 0.1% BSA, and resuspended in a final concentration of 0.5×10^6/ml PBS containing 0.25% BSA, HEPES and glucose ([…]). Alíquotas de células (1.5 ml) were dispensed in quartz cuvettes and balanced with 1 mM calcium at 37° C. for 10 minutes before being used. Fluorescence changes were measured by fluorometer Shimatzu (model RF 1501) as previously described. The calculus of free calcium was derived from the fluorescence spectrum (wave length of excitation, 340 and 380 nm; emission 510 nm) according to the method established. The values were represented as percentage of inhibition in relation to group control. […]
The values were expressed as an average± standard error of the mean and statistically analyzed through the test of variance analysis (ANOVA), followed by the Newman-Keuls-Student test.

[1] = tested on: isolated ileum of an experimental animal; assay: Contraction of isolated ileum induced by histamine; conditions: histamine (5 μM), average ±SEM, at least 3 animals; read-out: Stimulation with histamine IC50
Protocol: Female and male experimental animals were used, weighing between 300 and 400 g, they came from Oswaldo Cruz Foundation's Center of Laboratory Animal Raising. The procedures involving the animals were examined and approved by Oswaldo Cruz Foundation's Committee of Animal Ethics (CEUA-FIOCRUZ, Licenca no. 00085-02). The animals were sensitized through a subcutanous injection with a mixture of 50 μg ovoalbumin and 5 mg Al(OH)3. From fourteen to thirty days after the sensitization, the experimental, animal was sacrificed in a chamber of carbonic gas to have its abdomen open and the location of the ileocecal valve. At this point, the intestine was sectioned and a segment of the small intestine, about 20 cm (equivalent to the ileum) was carefully removed and internally washed with a warmed solution (37° C.) of Tyrode (Composition in mM) (NaCl 137; KCl 2.7; NaH2PO4 0.42; NaHCO3 11.9; MgCl2 0.5; CaCl2 1.8; glucose 5.6) to remove the fecal content. […].
About 3-cm ileum fragments were vertically mounted in 10 ml glass cuvettes, immersed in Tyrode's solution at 37° C., aerated with carbogen (O2, 95% and CO2, 5%) and supplemented with atropine according to the standard procedure. The tissue had one of its ends tied to a rod while the other end was coupled with a transductor after the transference from the rod to the cuvette. The contractions were isotonically registered (basal tension of 1 g) with the support of a transductor of displacement-force connected to a computerized system to capture data. After a 30 minute period of balance, each segment was repeatedly stimulated by histamine (1 μM) until response stabilization. To induce anaphylatic contraction, ileum segments from sensitized experimental animals were stimulated by ovoalbumin (10 μg/ml). […]. The results were presented as a percentage of inhibition calculated in relation to the contractive effect obtained from stimulated and non-treated preparations.
Concentration-response data were adjusted through non-linear regression curves with the assistence of a graphics software (GraphPad Prism, USA). The concentration of an antagonist needed to inhibit the contractive response to inhibit the contractive response after stimulation by histamine or antigen at 50% (IC50) was used to compare the anti-spasmodic potency. The values expressed as an average ± standard error of the mean and statistically analysed through the test of analysis variance (ANOVA), followed by the Newman-Keuls-Student test.

[2] = intraperitoneal, 15 minutes after injection, 10 mice per dose

| SMILES | DE50, dose to induce convulsion in 50% of the animals (Swiss 44 mice; mouse, in vivo, ip) [mg/kg] | inhibition of citosolic calcium increase compared with lidocaine (eosinophils of rats) | IC50 [1] [µM] | convulsivant activity compared with lidocaine (Swiss 44 mice; 40-500 mg/Kg intraperitoneal) | DE50, dose to induce convulsion in 50% of the animals (Swiss 44 mice; [2]) [mg/kg] | percentage of injected animals led to convulsion (Swiss 44 mice; 80 mg/Kg intraperitoneal) [%] | blocking of the increase of citosolic calcium (eosinophils of rats; highest concentration (1 mM), Average±SEM, n=8) [%] |
| --- | --- | --- | --- | --- | --- | --- | --- |
| CCN(CC)CC(=O)Nc1cccc(C)c1C [JM23-1, 2-dyethylamine-2′,3′-acetoxylidide] | 154 | equipotent to lidocaine | 380 ± 60 | – | – | – | – |
| CCN(CC)CC(=O)Nc1ccc(C)cc1C [JM24-1, 2-dyethylamine-2′,4′-acetoxylidide] | – | so effective as lidocaine and JM23-1 in higher concentrations | 310 ± 60 | noticeably inferior | 230 | – | – |
| CCN(CC)CC(=O)Nc1c(C)cccc1C [Lidocaine, 1-(2-(dyethylamine)N-dymethylfenyl)-acetamide, reference compound] | – | – | 1410 ± 120 | – | 62 | 100 | 47±2 |

— patent US8163803B2 (Fundação Oswaldo Cruz—FIOCRUZ, priority 2004, dated 2012)
